Source: patent US20240034722A1, “PRETARGETING IMAGING AGENTS” (Eli Lilly and Company, priority 2020, published 2024)
Values joined by “and” are separate entries in the source; they are usually repeats but may differ in a detail not shown here. Identical values can stand only once. “Also recorded” adds a separate entry of the source.

Legend:
[1] = Stability of the tetrazine moiety in ascorbate formulation; type: physicochemical
[2] = Dynamic micro PET-CT imaging, tracer uptake in brain, muscle and bone; type: in vivo, CD-1 mice; conditions: for Bone uptake throughout the scan period (defluorination) / Uptake throughout the periphery of the body (liver, kidneys, heart) / Brain uptake after steady clearance of tracer / Clearance from the brain / Crossing of the blood-brain-barrier / Peak brain uptake / Time of peak brain uptake post injection: CD-1 male mice; for Bone uptake throughout the scan period (defluorination): 60-min scan; for Uptake throughout the periphery of the body (liver, kidneys, heart): PET; for Brain uptake after steady clearance of tracer: at 59.5 min post injection; for Clearance from the brain: by 60 minutes post injection, relative to muscle; for Crossing of the blood-brain-barrier / Peak brain uptake / Time of peak brain uptake post injection: dynamic PET; for Peak brain uptake / Time of peak brain uptake post injection: i.v.; for Bone Mean % ID/g / Brain Mean % ID/g / Muscle Mean % ID/g: male CD-1 mice, iv
Method: (§1) A Siemens Inveon® Multimodality Scanner (Siemens, Germany) is used for micro PET-CT imaging. Male CD-1 (6-week-old, ˜30 g) mice are anesthetized with 3% isoflurane/97% oxygen and placed on the bed of the scanner. The mice are administered [^18F]N-(4-(1,2,4,5-tetrazin-3-yl)benzyl)-2-fluoronicotinamide via a bolus intravenous tail vein injection (˜350 ρCi in a total volume of 150 μL saline). A total of four dynamic PET scans are conducted, followed by a short high-resolution CT scan for anatomical registration. PET images are generated for each minute of the acquisition time. Uptake of the tracer in the brain, muscle, and bone are determined by visually drawing regions of interest (ROIs) based on the fused PET/CT images and the corresponding activity values are determined using the Inveon® Research Workplace software. All values are represented as % injected dose per gram (% ID/g).
as §1, with “g) mice were anesthetized with” for “g) mice are anesthetized with”, “are administered [^18F]N-(4-(1,2,4,5-tetrazin-3-yl)benzyl)-6-fluoropicolinamide via a” for “are administered [^18F]N-(4-(1,2,4,5-tetrazin-3-yl)benzyl)-2-fluoronicotinamide via a”, “vein injection (˜300 ρCi in” for “vein injection (˜350 ρCi in”
as §1, with “PET/CT” for “PET-CT”, “30-40” for “˜30”, “[^18F]N-(4-(1,2,4,5-tetrazin-3-yl)benzyl)-6-fluoronicotinamide” for “[^18F]N-(4-(1,2,4,5-tetrazin-3-yl)benzyl)-2-fluoronicotinamide”, “(˜300” for “(˜350”, “two” for “four”

[3] = listed as [^18F]N-(4-(1,2,4,5-tetrazin-3-yl)benzyl)-2-fluoronicotinamide
[4] = listed as [^18F]N-(4-(1,2,4,5-tetrazin-3-yl)benzyl)-6-fluoropicolinamide

O=C(NCc1ccc(-c2nncnn2)cc1)c1cccc(F)n1 [Example 3, N-(4-(1,2,4,5-tetrazin-3-yl)benzyl)-6-fluoropicolinamide]
Reduction of the tetrazine moiety by ascorbate formulation [1]: readily reduced

O=C(NCc1ccc(-c2nncnn2)cc1)c1cccnc1[18F] [Example 2, [^18F]N-(4-(1,2,4,5-tetrazin-3-yl)benzyl)-2-fluoronicotinamide]
Reduction of the tetrazine moiety by ascorbate formulation [1]: readily reduced
Bone uptake throughout the scan period (defluorination) [2]: remained low
Uptake throughout the periphery of the body (liver, kidneys, heart) [2]: observed
Brain uptake after steady clearance of tracer [2]: 1.2 % ID/g
Clearance from the brain [2]: baseline levels defined by uptake in the muscle
Clearance from the brain [2, 3]: near background levels (muscle)
Crossing of the blood-brain-barrier [2]: readily cross the blood-brain-barrier
Peak brain uptake [2]: 3.3±0.4 % ID/g
Time of peak brain uptake post injection [2]: approximately 2 min
Peak brain uptake [2, 3]: 3.3±0.4 % ID/g and 3.3 % ID/g
Time of peak brain uptake post injection [2, 3]: 4.5 min
Crossing of the blood-brain-barrier [2, 3]: readily cross the blood-brain-barrier; also recorded: readily crosses the blood-brain-barrier

O=C(NCc1ccc(-c2nncnn2)cc1)c1ccc([18F])nc1 [Comparative Example 6, [^18]FN-(4-(1,2,4,5-tetrazin-3-yl)benzyl)-6-fluoronicotinamide]
Bone uptake throughout the scan period (defluorination) [2]: remained low
Uptake throughout the periphery of the body (liver, kidneys, heart) [2]: readily observed
Brain uptake after steady clearance of tracer [2]: 1.1 % ID/g
Crossing of the blood-brain-barrier [2]: crosses the blood-brain-barrier
Peak brain uptake [2]: 2.6 % ID/g
Time of peak brain uptake post injection [2]: 2.5 min
Bone Mean % ID/g ([2]; Time 0.5 min): 0.00 % ID/g
Brain Mean % ID/g ([2]; Time 0.5 min): 0.00 % ID/g
Muscle Mean % ID/g ([2]; Time 0.5 min): 0.00 % ID/g
Bone Mean % ID/g ([2]; Time 1.5 min): 0.09 % ID/g
Brain Mean % ID/g ([2]; Time 1.5 min): 0.52 % ID/g
Muscle Mean % ID/g ([2]; Time 1.5 min): 0.07 % ID/g
Bone Mean % ID/g ([2]; Time 2.5 min): 0.83 % ID/g
Brain Mean % ID/g ([2]; Time 2.5 min): 2.57 % ID/g
Muscle Mean % ID/g ([2]; Time 2.5 min): 0.56 % ID/g
Bone Mean % ID/g ([2]; Time 3.5 min): 0.95 % ID/g
Brain Mean % ID/g ([2]; Time 3.5 min): 2.45 % ID/g
Muscle Mean % ID/g ([2]; Time 3.5 min): 0.67 % ID/g
Bone Mean % ID/g ([2]; Time 4.5 min): 0.85 % ID/g
Brain Mean % ID/g ([2]; Time 4.5 min): 2.29 % ID/g
Muscle Mean % ID/g ([2]; Time 4.5 min): 0.73 % ID/g
Bone Mean % ID/g ([2]; Time 5.5 min): 0.86 % ID/g
Brain Mean % ID/g ([2]; Time 5.5 min): 2.20 % ID/g
Muscle Mean % ID/g ([2]; Time 5.5 min): 0.72 % ID/g
Bone Mean % ID/g ([2]; Time 6.5 min): 0.90 % ID/g
Brain Mean % ID/g ([2]; Time 6.5 min): 2.23 % ID/g
Muscle Mean % ID/g ([2]; Time 6.5 min): 0.80 % ID/g
Bone Mean % ID/g ([2]; Time 7.5 min): 0.90 % ID/g
Brain Mean % ID/g ([2]; Time 7.5 min): 2.15 % ID/g
Muscle Mean % ID/g ([2]; Time 7.5 min): 0.84 % ID/g
Bone Mean % ID/g ([2]; Time 8.5 min): 0.90 % ID/g
Brain Mean % ID/g ([2]; Time 8.5 min): 2.10 % ID/g
Muscle Mean % ID/g ([2]; Time 8.5 min): 0.84 % ID/g
Bone Mean % ID/g ([2]; Time 9.5 min): 0.81 % ID/g
Brain Mean % ID/g ([2]; Time 9.5 min): 2.00 % ID/g
Muscle Mean % ID/g ([2]; Time 9.5 min): 0.78 % ID/g
Bone Mean % ID/g ([2]; Time 10.5 min): 0.90 % ID/g
Brain Mean % ID/g ([2]; Time 10.5 min): 1.95 % ID/g
Muscle Mean % ID/g ([2]; Time 10.5 min): 0.79 % ID/g
Bone Mean % ID/g ([2]; Time 11.5 min): 0.92 % ID/g
Brain Mean % ID/g ([2]; Time 11.5 min): 1.89 % ID/g
Muscle Mean % ID/g ([2]; Time 11.5 min): 0.84 % ID/g
Bone Mean % ID/g ([2]; Time 12.5 min): 0.94 % ID/g
Brain Mean % ID/g ([2]; Time 12.5 min): 1.86 % ID/g
Muscle Mean % ID/g ([2]; Time 12.5 min): 0.84 % ID/g
Bone Mean % ID/g ([2]; Time 13.5 min): 0.97 % ID/g
Brain Mean % ID/g ([2]; Time 13.5 min): 1.83 % ID/g
Muscle Mean % ID/g ([2]; Time 13.5 min): 0.88 % ID/g
Bone Mean % ID/g ([2]; Time 14.5 min): 0.98 % ID/g
Brain Mean % ID/g ([2]; Time 14.5 min): 1.78 % ID/g
Muscle Mean % ID/g ([2]; Time 14.5 min): 0.88 % ID/g
Bone Mean % ID/g ([2]; Time 15.5 min): 0.98 % ID/g
Brain Mean % ID/g ([2]; Time 15.5 min): 1.76 % ID/g
Muscle Mean % ID/g ([2]; Time 15.5 min): 0.89 % ID/g
Bone Mean % ID/g ([2]; Time 16.5 min): 0.83 % ID/g
Brain Mean % ID/g ([2]; Time 16.5 min): 1.72 % ID/g
Muscle Mean % ID/g ([2]; Time 16.5 min): 0.93 % ID/g
Bone Mean % ID/g ([2]; Time 17.5 min): 1.00 % ID/g
Brain Mean % ID/g ([2]; Time 17.5 min): 1.69 % ID/g
Muscle Mean % ID/g ([2]; Time 17.5 min): 0.91 % ID/g
Bone Mean % ID/g ([2]; Time 18.5 min): 0.97 % ID/g
Brain Mean % ID/g ([2]; Time 18.5 min): 1.65 % ID/g
Muscle Mean % ID/g ([2]; Time 18.5 min): 0.89 % ID/g
Bone Mean % ID/g ([2]; Time 19.5 min): 0.93 % ID/g
Brain Mean % ID/g ([2]; Time 19.5 min): 1.63 % ID/g
Muscle Mean % ID/g ([2]; Time 19.5 min): 0.90 % ID/g
Bone Mean % ID/g ([2]; Time 20.5 min): 1.01 % ID/g
Brain Mean % ID/g ([2]; Time 20.5 min): 1.61 % ID/g
Muscle Mean % ID/g ([2]; Time 20.5 min): 0.95 % ID/g
Bone Mean % ID/g ([2]; Time 21.5 min): 0.91 % ID/g
Brain Mean % ID/g ([2]; Time 21.5 min): 1.58 % ID/g
Muscle Mean % ID/g ([2]; Time 21.5 min): 0.98 % ID/g
Bone Mean % ID/g ([2]; Time 22.5 min): 1.02 % ID/g
Brain Mean % ID/g ([2]; Time 22.5 min): 1.56 % ID/g
Muscle Mean % ID/g ([2]; Time 22.5 min): 0.95 % ID/g
Bone Mean % ID/g ([2]; Time 23.5 min): 1.04 % ID/g
Brain Mean % ID/g ([2]; Time 23.5 min): 1.55 % ID/g
Muscle Mean % ID/g ([2]; Time 23.5 min): 1.00 % ID/g
Bone Mean % ID/g ([2]; Time 24.5 min): 1.11 % ID/g
Brain Mean % ID/g ([2]; Time 24.5 min): 1.51 % ID/g
Muscle Mean % ID/g ([2]; Time 24.5 min): 0.98 % ID/g
Bone Mean % ID/g ([2]; Time 25.5 min): 0.93 % ID/g
Brain Mean % ID/g ([2]; Time 25.5 min): 1.49 % ID/g
Muscle Mean % ID/g ([2]; Time 25.5 min): 0.99 % ID/g
Bone Mean % ID/g ([2]; Time 26.5 min): 0.86 % ID/g
Brain Mean % ID/g ([2]; Time 26.5 min): 1.46 % ID/g
Muscle Mean % ID/g ([2]; Time 26.5 min): 0.95 % ID/g
Bone Mean % ID/g ([2]; Time 27.5 min): 0.94 % ID/g
Brain Mean % ID/g ([2]; Time 27.5 min): 1.45 % ID/g
Muscle Mean % ID/g ([2]; Time 27.5 min): 0.94 % ID/g
Bone Mean % ID/g ([2]; Time 28.5 min): 1.00 % ID/g
Brain Mean % ID/g ([2]; Time 28.5 min): 1.42 % ID/g
Muscle Mean % ID/g ([2]; Time 28.5 min): 1.00 % ID/g
Bone Mean % ID/g ([2]; Time 29.5 min): 1.05 % ID/g
Brain Mean % ID/g ([2]; Time 29.5 min): 1.40 % ID/g
Muscle Mean % ID/g ([2]; Time 29.5 min): 0.97 % ID/g
Bone Mean % ID/g ([2]; Time 30.5 min): 0.95 % ID/g
Brain Mean % ID/g ([2]; Time 30.5 min): 1.38 % ID/g
Muscle Mean % ID/g ([2]; Time 30.5 min): 0.99 % ID/g
Bone Mean % ID/g ([2]; Time 31.5 min): 1.04 % ID/g
Brain Mean % ID/g ([2]; Time 31.5 min): 1.38 % ID/g
Muscle Mean % ID/g ([2]; Time 31.5 min): 0.95 % ID/g
Bone Mean % ID/g ([2]; Time 32.5 min): 1.04 % ID/g
Brain Mean % ID/g ([2]; Time 32.5 min): 1.36 % ID/g
Muscle Mean % ID/g ([2]; Time 32.5 min): 0.97 % ID/g

O=C(NCc1ccc(-c2nncnn2)cc1)c1cccnc1F [Example 1, N-(4-(1,2,4,5-tetrazin-3-yl)benzyl)-2-fluoronicotinamide]
Reduction of the tetrazine moiety by ascorbate formulation [1]: readily reduced

O=C(NCc1ccc(-c2nncnn2)cc1)c1cccc([18F])n1 [Example 4, [^18F]N-(4-(1,2,4,5-tetrazin-3-yl)benzyl)-6-fluoropicolinamide]
Bone uptake throughout the scan period (defluorination) [2]: remained low
Uptake throughout the periphery of the body (liver, kidneys, heart) [2]: observed
Brain uptake after steady clearance of tracer [2]: 1.1 % ID/g
Clearance from the brain [2]: baseline levels defined by uptake in the muscle
Clearance from the brain [2, 4]: near background levels (muscle)
Crossing of the blood-brain-barrier [2]: readily cross the blood-brain-barrier
Peak brain uptake [2]: 4.3±0.3 % ID/g
Time of peak brain uptake post injection [2]: approximately 2 min
Peak brain uptake [2, 4]: 4.3±0.3 % ID/g and 4.3 % ID/g
Time of peak brain uptake post injection [2, 4]: 2.5 min
Crossing of the blood-brain-barrier [2, 4]: readily cross the blood-brain-barrier; also recorded: readily crosses the blood-brain-barrier
